Data reported in patent publication US4693992A, “Bacitracin-metal-polyether antibiotic complexes” (International Minerals & Chemical Corp., priority 1985, dated 1987).

Columns and labels:
Eimeria tenella [1] = experiment: Anticoccidial activity in chickens inoculated with Eimeria tenella (Example 12); format: in vivo, chicken; conditions: for Cecal Bleeding / Gain/Bird Days 0-3 / Gain/Bird Days 4-10: regrouped part of Table 2
Experimental: (§1) This example describes experimental testing of complexes of this invention for anticoccidial activity. Anticoccidial activities of test compounds were determined by administering the compounds (in feed) to chickens inoculated with active oocysts of Eimeria tenella. The test compounds, which are listed in Table 1 below, included four bacitracin-metal-polyether antibiotic complexes prepared according to the procedures described above. In addition, sodium lysocellin, regular bacitracin, sodium monensin, sodium lasolocid, and unmedicated inoculated and noninoculated controls were included for comparative purposes.
(§2) The test animals were Hubbard White Mountain male chicken (broiler strain) that were 5 days old at the beginning of the test. Each experimental compound was administered in a chick starter diet (Table 2) at a level of 80 g/ton and 120 g/ton. At 7 days of age, chicks were individually weighed, banded, and started on their respective treatments. Each treatment was replicated three times with five birds per replicate for a total of 15 birds per group. The test period was 10 days.
Seventy-two hours after the initiation of medication, birds were reweighed and orally inoculated with approximately 100,000 Eimeria tenella oocysts suspended in a 1 cc dose of saline. The following criteria were then evaluated over the next seven days:
A satisfactory challenge was obtained with Eimeria tenella.

Eimeria tenella [2] = experiment: Anticoccidial activity in chickens inoculated with Eimeria tenella oocysts (Example 11); format: in vivo; conditions: for Incidence of Bloody Droppings / Morbidity: 4th-6th day; for Mortality: 4th-7th day
Experimental: as §1, §2
Seventy-two hours after the initiation of medication, birds were reweighed and orally inoculated with approximately 100,000 Eimeria tenella oocysts suspended in a 1 cc dose of saline. The following criteria were then evaluated over the next seven days: […]
a. morbidity (4th-6th day) b. mortality (4th-7th day) c. incidence of bloody droppings (4th-6th day)

[3] = 80 g/ton in feed, feed per gain
[4] = 120 g/ton in feed, feed per gain

Question: `CC[C@@H](C(=O)[C@@H](C)[C@@H](O)[C@H](C)CCc1ccc(C)c(O)c1C(=O)O)[C@H]1O[C@](CC)([C@H]2CC[C@](O)(CC)[C@H](C)O2)C[C@@H]1C` [Lasalocid, sodium lasalocid, reference compound] was tested. Which “Cecal Bleeding” value (Eimeria tenella [1]; 14 g/ton Lasalocid (Approx.)) did it give?
Answer: The value was “Severe”.

Question: And the “Gain/Bird Days 0-3” value (Eimeria tenella [1]; 14 g/ton Lasalocid (Approx.))?
Answer: Its value is 58.7.

Question: And the “Gain/Bird Days 4-10” value (Eimeria tenella [1]; 14 g/ton Lasalocid (Approx.))?
Answer: The value was 148.5.

Question: And the “Cecal bleeding associated with E. tenella infections” value (Eimeria tenella [1]; 24 (.30 of 80) gram per ton)?
Answer: Its value is “severe”.

Question: What about the “Incidence of Bloody Droppings” value (Eimeria tenella [1]; 24 g/ton in feed) of the same compound?
Answer: The value was “Severe”.

Question: And the Morbidity (Eimeria tenella [1]; 24 g/ton in feed)?
Answer: The Morbidity was 9/15.

Question: What about the Mortality (Eimeria tenella [1]; 24 g/ton in feed) of the same compound?
Answer: The Mortality was 0/15.

Question: What about the “F/G Day 0-3” value (Eimeria tenella [1]; 24 g/ton in feed) of the same compound?
Answer: Its value is 1.78.

Question: What about the “Gain/Bird Grams Day 0-3” value (Eimeria tenella [1]; 24 g/ton in feed) of the same compound?
Answer: Its value is 58.7 Grams.

Question: And the “F/G Day 4-10” value (Eimeria tenella [1]; 24 g/ton in feed)?
Answer: The value was 2.09.

Question: What about the “Gain/Bird Grams Day 4-10” value (Eimeria tenella [1]; 24 g/ton in feed) of the same compound?
Answer: Its value is 148.5 Grams.

Question: What about the “Cecal Bleeding” value (Eimeria tenella [1]; 36 g/ton Lasalocid (Approx.)) of the same compound?
Answer: The value was “Moderate”.

Question: What about the “Gain/Bird Days 0-3” value (Eimeria tenella [1]; 36 g/ton Lasalocid (Approx.)) of the same compound?
Answer: Its value is 61.5.

Question: What about the “Gain/Bird Days 4-10” value (Eimeria tenella [1]; 36 g/ton Lasalocid (Approx.)) of the same compound?
Answer: The value was 176.5.

Question: And the “Incidence of Bloody Droppings” value (Eimeria tenella [1]; 36 g/ton in feed)?
Answer: Its value is “Moderate”.

Question: And the Morbidity (Eimeria tenella [1]; 36 g/ton in feed)?
Answer: Its Morbidity is 5/14.

Question: And the Mortality (Eimeria tenella [1]; 36 g/ton in feed)?
Answer: The Mortality was 1/14.

Question: What about the “F/G Day 0-3” value (Eimeria tenella [1]; 36 g/ton in feed) of the same compound?
Answer: The value was 1.74.

Question: And the “Gain/Bird Grams Day 0-3” value (Eimeria tenella [1]; 36 g/ton in feed)?
Answer: The value was 61.5 Grams.

Question: What about the “F/G Day 4-10” value (Eimeria tenella [1]; 36 g/ton in feed) of the same compound?
Answer: Its value is 1.86.

Question: What about the “Gain/Bird Grams Day 4-10” value (Eimeria tenella [1]; 36 g/ton in feed) of the same compound?
Answer: The value was 176.5 Grams.

Question: What about the “Incidence of Bloody Droppings” value (Eimeria tenella [1]; 80 g/ton in feed) of the same compound?
Answer: Its value is “None”.

Question: What about the Morbidity (Eimeria tenella [1]; 80 g/ton in feed) of the same compound?
Answer: The Morbidity was 1/15.

Question: And the Mortality (Eimeria tenella [1]; 80 g/ton in feed)?
Answer: The Mortality was 0/15.

Question: And the “F/G Day 0-3” value (Eimeria tenella [1]; 80 g/ton in feed)?
Answer: The value was 1.71.

Question: What about the “Gain/Bird Grams Day 0-3” value (Eimeria tenella [1]; 80 g/ton in feed) of the same compound?
Answer: Its value is 58.0 Grams.

Question: What about the “F/G Day 4-10” value (Eimeria tenella [1]; 80 g/ton in feed) of the same compound?
Answer: The value was 1.60.

Question: What about the “Gain/Bird Grams Day 4-10” value (Eimeria tenella [1]; 80 g/ton in feed) of the same compound?
Answer: Its value is 219.4 Grams.

Question: What about the “Incidence of Bloody Droppings” value (Eimeria tenella [1]; 120 g/ton in feed) of the same compound?
Answer: Its value is “None”.

Question: What about the Morbidity (Eimeria tenella [1]; 120 g/ton in feed) of the same compound?
Answer: The Morbidity was 0/15.

Question: What about the Mortality (Eimeria tenella [1]; 120 g/ton in feed) of the same compound?
Answer: Its Mortality is 0/15.

Question: What about the “F/G Day 0-3” value (Eimeria tenella [1]; 120 g/ton in feed) of the same compound?
Answer: Its value is 1.76.

Question: And the “Gain/Bird Grams Day 0-3” value (Eimeria tenella [1]; 120 g/ton in feed)?
Answer: Its value is 52.1 Grams.

Question: And the “F/G Day 4-10” value (Eimeria tenella [1]; 120 g/ton in feed)?
Answer: The value was 1.52.

Question: What about the “Gain/Bird Grams Day 4-10” value (Eimeria tenella [1]; 120 g/ton in feed) of the same compound?
Answer: The value was 225.2 Grams.

Question: And the “anticoccidial activity (in words)” value (Eimeria tenella [2]; 80 and 120 g/ton, mild E. tenella challenge)?
Answer: Its value is “excellent anticoccidial activity”.

Question: What about the “Incidence of Bloody Droppings” value (Eimeria tenella [2]; 80 g/ton in feed) of the same compound?
Answer: Its value is “None”.

Question: And the Morbidity (Eimeria tenella [2]; 80 g/ton in feed, birds affected/birds in group)?
Answer: The Morbidity was 0/15.

Question: And the Mortality (Eimeria tenella [2]; 80 g/ton in feed, birds dead/birds in group)?
Answer: The Mortality was 0/15.

Question: What about the “Gain, Grams Day 0-3” value (Eimeria tenella [2]; 80 g/ton in feed) of the same compound?
Answer: Its value is 59.7 Grams.

Question: And the “Gain, Grams Day 4-10” value (Eimeria tenella [2]; 80 g/ton in feed)?
Answer: Its value is 232.4 Grams.

Question: And the “F/G Day 0-3” value (Eimeria tenella [2]; [3])?
Answer: Its value is 1.68.

Question: What about the “F/G Day 4-10” value (Eimeria tenella [2]; [3]) of the same compound?
Answer: Its value is 1.58.

Question: What about the “Incidence of Bloody Droppings” value (Eimeria tenella [2]; 120 g/ton in feed) of the same compound?
Answer: Its value is “None”.

Question: And the Morbidity (Eimeria tenella [2]; 120 g/ton in feed, birds affected/birds in group)?
Answer: The Morbidity was 1/15.

Question: What about the Mortality (Eimeria tenella [2]; 120 g/ton in feed, birds dead/birds in group) of the same compound?
Answer: Its Mortality is 0/15.

Question: And the “Gain, Grams Day 0-3” value (Eimeria tenella [2]; 120 g/ton in feed)?
Answer: Its value is 55.7 Grams.

Question: What about the “Gain, Grams Day 4-10” value (Eimeria tenella [2]; 120 g/ton in feed) of the same compound?
Answer: Its value is 230.1 Grams.

Question: And the “F/G Day 0-3” value (Eimeria tenella [2]; [4])?
Answer: Its value is 1.75.

Question: And the “F/G Day 4-10” value (Eimeria tenella [2]; [4])?
Answer: Its value is 1.56.

Question: `CC[C@@]1([C@@H]2O[C@@H]([C@H]3O[C@@](O)(CO)[C@H](C)C[C@@H]3C)C[C@@H]2C)CC[C@H]([C@]2(C)CC[C@]3(C[C@H](O)[C@@H](C)[C@@H]([C@@H](C)[C@@H](OC)[C@H](C)C(=O)O)O3)O2)O1` [Monensin, sodium monensin, reference compound] was tested. Which “protection against cecal bleeding” value (Eimeria tenella [2]; level in feed not given) did it give?
Answer: The value was “fair”.

Question: What about the “tolerance by the birds” value (Eimeria tenella [2]; level in feed not given) of the same compound?
Answer: Its value is “not tolerated well”.

Question: What about the “Incidence of Bloody Droppings” value (Eimeria tenella [2]; level in feed not given) of the same compound?
Answer: Its value is “Slight”.

Question: And the Morbidity (Eimeria tenella [2]; level in feed not given)?
Answer: The Morbidity was 5/15.

Question: What about the Mortality (Eimeria tenella [2]; level in feed not given) of the same compound?
Answer: The Mortality was 0/15.

Question: What about the “F/G Day 0-3” value (Eimeria tenella [2]; level in feed not given) of the same compound?
Answer: Its value is 1.81.

Question: What about the “Gain, Grams Day 0-3” value (Eimeria tenella [2]; level in feed not given) of the same compound?
Answer: Its value is 53.2 Grams.

Question: And the “F/G Day 4-10” value (Eimeria tenella [2]; level in feed not given)?
Answer: The value was 1.64.

Question: And the “Gain, Grams Day 4-10” value (Eimeria tenella [2]; level in feed not given)?
Answer: The value was 202.5 Grams.
